Measurements as given in ChEMBL document CHEMBL6109096, “Synthesis, anti-allergic rhinitis evaluation and mechanism investigation of novel 1,2,4-triazole-enamides as CB1 R antagonist” (Eur J Med Chem, 2025).

How the values were obtained:
RAW264.7 [1] = assay: Cytotoxicity against mouse RAW264.7 cells assessed as reduction in cell viability at 10 uM incubated for 24 hrs by CCK-8 assay; type: toxicity, cell-based; conditions: raw264.7, 24 h
RAW264.7 [2] = assay: Inhibition of IL-1beta (unknown origin) in mouse RAW264.7 relative to control; type: cell-based; conditions: dose or concentration not given here

SMILES	Activity (RAW264.7 [1])	inhibition (RAW264.7 [2])
CN(/C=C\c1ccccc1)C(=O)c1nc(-c2ccc(Cl)cc2)n(-c2ccccc2)n1	Non-toxic	
CN(/C=C\c1ccccc1)C(=O)c1ncn(-c2ccccc2)n1	Non-toxic	
CN(/C=C\c1ccccc1)C(=O)c1nc(-c2ccc3ccccc3c2)n(-c2ccccc2)n1	Non-toxic	
CN(/C=C\c1ccccc1)C(=O)/C=C/c1ccccc1		19%
CN(/C=C\c1ccccc1)C(=O)c1nc(-c2ccc(Br)cc2)n(-c2ccccc2)n1	Non-toxic	
Cc1ccc(-c2nc(C(=O)N(C)/C=C\c3ccccc3)nn2-c2ccccc2)cc1	Non-toxic	
